We go through 88 molecules from PubChem BioAssay AID1645864 (Buhrlage Lab, Dana-Farber Cancer Institute and Novartis …, 2021).

In general, IC50 refers to the concentration at which inhibition is half-maximal.

SMILES strings stand for the structures. Active and inactive are the calls of the source.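 The calls were made as follows: active = maximal inhibition of USP17 at or above 30% in the confirmation dose-response, a value not among the printed readouts; inactive = the rest.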

Sequence of Ubiquitin carboxyl-terminal hydrolase 17-like protein 5 (Homo sapiens) (A8MUK1 whole entry, looked up): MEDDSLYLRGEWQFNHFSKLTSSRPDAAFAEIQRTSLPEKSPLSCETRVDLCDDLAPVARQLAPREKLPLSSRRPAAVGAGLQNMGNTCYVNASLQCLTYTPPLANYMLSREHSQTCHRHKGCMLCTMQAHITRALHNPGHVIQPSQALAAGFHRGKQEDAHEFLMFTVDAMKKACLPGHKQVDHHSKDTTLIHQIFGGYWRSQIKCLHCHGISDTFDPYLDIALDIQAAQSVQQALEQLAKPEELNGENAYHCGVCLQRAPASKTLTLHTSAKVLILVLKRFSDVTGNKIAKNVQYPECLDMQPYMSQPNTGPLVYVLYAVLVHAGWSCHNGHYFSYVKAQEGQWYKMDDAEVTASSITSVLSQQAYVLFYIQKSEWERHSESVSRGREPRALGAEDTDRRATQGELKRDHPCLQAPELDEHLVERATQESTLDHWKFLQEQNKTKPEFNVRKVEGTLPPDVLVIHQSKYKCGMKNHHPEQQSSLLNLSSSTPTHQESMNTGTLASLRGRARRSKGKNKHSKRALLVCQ

The test addresses Ubiquitin carboxyl-terminal hydrolase 17-like protein 5 (Homo sapiens) (UniProt A8MUK1). Nature of the test: ubiquitin-specific protease 17 DUB inhibitors, concentration-effect assay, cell-free, verification of initial screening actives (AID 1645864). To be noted: purified USP17, ubiquitin-rhodamine cleavage fluorescence, 3 h.
For `COc1ccc(-n2nnc3c(SCC(=O)Nc4cc(C)on4)ncnc32)cc1`, the IC50 was > 50 µM (inactive).

On to `Cc1ccc(NC(=O)Cn2c(-n3nc(C)cc3C)nc3c(c2=O)CCCC3)c(C)c1`, for which the IC50 was 32.6 µM.

In the case of `O=C(NC1CC1)c1ccnn1-c1ccc2ccc(-c3ccncc3)cn12`, the IC50 was > 50 µM (inactive).

As to `Cc1ccc(C(=O)NCc2ccc(C(=O)Nc3cccc(C)c3)o2)cc1`, the IC50 was 32.5 µM.

Turning to `COc1ccccc1C(=O)NCC(c1ccc2c(c1)CCCN2C)N1CCCC1` (stereo not drawn), the IC50 was > 50 µM (inactive).

As for `O=C(Nc1cc(F)c2nc(N3CCOCC3)ccc2c1)C1CC1`, the IC50 was 7.47 µM.

For the molecule `COC1C(O)=C2C(=O)O/C(C)=C/C=C/C=C/C=C/CC(c3ccccc3)NC(=O)/C=C/C=C/C=C\C=C\C2(C)C1O` (stereo not drawn), the IC50 is > 50 µM (inactive).

For `CC(C)(C)c1ccc(Cn2nnc3c(=O)[nH]c(C4CCN(S(=O)(=O)c5ccc(S(=O)(=O)NC6CC6)cc5)CC4)nc32)cc1`, the IC50 is 39.3 µM.

With `Cc1ccccc1-c1nnc(-c2ccc(C(=O)NCc3ccccc3F)cc2)o1`, the concentration for half-maximal inhibition (IC50) was 5.8 µM.

Consider `CC(C)c1ccc(/C=C/C(=O)N2CCc3ccccc3C2)cc1`, for which the IC50 is 21.1 µM.

For `CC(C)(C)C(=O)NC(c1ccccc1)c1nnc(N2CCOCC2)o1` (stereo not drawn), the IC50 was > 50 µM (inactive).

Turning to `O=[N+]([O-])c1ccc(N2CCN(c3ncnc4c3[nH]c3ccc(F)cc34)CC2)cc1`, the half-maximal inhibitory concentration (IC50) was 0.247 µM.

On to `O=C1N[C@@H](Cc2ccccc2)C(=O)N2[C@H]3Nc4ccccc4[C@@]3([C@]34C[C@H]5C(=O)N[C@@H](Cc6ccccc6)C(=O)N5[C@H]3Nc3ccccc34)C[C@@H]12`, for which the IC50 is 38.4 µM.

On to `COc1ccc(NC(=O)C2CC(=O)Nc3cc(-c4ccccc4)nn32)cc1` (stereo not drawn), for which the 50% inhibitory concentration (IC50) is 22.9 µM.

Turning to `O=C(CCC1CCCCC1)Nc1ccccc1C(=O)N1CCOCC1`, the IC50 was > 5 µM (inactive).

As to `O=C(Nc1ccc(-c2nnc3n2CCCCC3)cc1)c1ccc2c(c1)OCO2`, the IC50 was > 50 µM (inactive).

Regarding `NC(=O)c1ccc(NC(=O)Cc2cc(-c3ccc(Cl)cc3)on2)cc1`, the IC50 was > 50 µM (inactive).

On to `COc1cc(-c2cc(C(=O)Nc3cc(C)[nH]n3)c3ccccc3n2)cc(OC)c1OC`, for which the half-maximal inhibitory concentration (IC50) was 42.9 µM.

`CCn1cnc2c1c(=O)n(CC(=O)NCc1ccccc1Cl)c(=O)n2Cc1ccccc1`: the IC50 was > 50 µM (inactive).

Consider `Cc1ccc2c(c1)N(Cc1nc(-c3ccc(F)cc3)no1)C(=O)CO2`, for which the IC50 was > 50 µM (inactive).

`CCN(CC)C(=O)c1sc(NC(=O)/C=C/c2c(F)cccc2Cl)c(C#N)c1C`: the IC50 was 2.29 µM.

In the case of `NC(=O)c1nc(-c2cccnc2)nc2c1[nH]c(=O)n2-c1ccc2c(c1)OCO2`, the IC50 is 4.01 µM.

Consider `CS(=O)(=O)N1CCCN(c2nc3cc(Cl)ccc3n3cccc23)CC1`, for which the IC50 was > 50 µM (inactive).

Consider `COc1ccc(C(=O)Nc2nc(-c3ccc4c(c3)NC(=O)CO4)c(C)s2)cc1OC`, for which the IC50 is 1.23 µM.

For the molecule `CC1=C(C)C(c2c(-c3ccc(C)cc3)[nH]c3ccccc23)N(C(C)(C)C)C1=O` (stereo not drawn), the IC50 was 2.05 µM.

Turning to `O=C(Cn1c(=O)n(CC(=O)NC2CCCC2)c(=O)c2ccccc21)Nc1cc(Cl)ccc1Cl`, the IC50 is 4.66 µM.

As to `COCCNC(=O)Cn1c(=O)n(Cc2ccccc2)c(=O)c2c3c(sc21)CCC3`, the half-maximal inhibitory concentration (IC50) is 33.5 µM.

`CSc1nc(SCC(N)=O)c2c3c(sc2n1)COC(C)(C)C3`: the IC50 is 36.9 µM.

In the case of `O=c1c2ccccc2c(-c2nc(-c3ccncc3)no2)cn1-c1ccccc1`, the IC50 was 2.75 µM.

In the case of `CN1CCN(c2ccc3nc(-c4ccccc4)c(-c4ccccc4)nc3c2)CC1`, the IC50 was > 50 µM (inactive).

In the case of `COc1ccccc1NC(=O)c1cc(-c2ccccn2)nc2ccccc12`, the IC50 is 9.53 µM.

For `CCN1CCN(C(=O)CCCN(c2ccccc2)S(C)(=O)=O)CC1`, the IC50 was > 50 µM (inactive).

`O=C(Cn1c(=O)n(Cc2ccc3c(c2)OCO3)c(=O)c2ncccc21)c1ccccc1`: the IC50 was 46.8 µM.

In the case of `Cc1ccc(NC(=O)c2ccc3nn(CC(=O)Nc4ccc(F)cc4F)c(=O)n3c2)cc1`, the concentration for half-maximal inhibition (IC50) is 2.79 µM.

For the molecule `O=C(CSc1nnc(-c2ccc3c(c2)OCO3)n1-c1ccccc1)OCC(=O)c1ccccc1`, the IC50 was > 50 µM (inactive).

On to `COc1cc(Cl)ccc1Oc1ncnc2sc(C)c(C)c12`, for which the IC50 was > 50 µM (inactive).

Consider `Oc1ccc(-c2nc3cnccn3c2NCCc2ccccc2)c(O)c1`, for which the IC50 was > 50 µM (inactive).

As to `O=C(Nc1ncc2c(n1)-c1ccccc1CC2)C1CC1`, the IC50 was 20.9 µM.

In the case of `N#Cc1ccc(NC(=O)Nc2cccn(Cc3ccccc3F)c2=O)cc1`, the IC50 is 6.33 µM.

Turning to `O=C(c1nnn(Cc2ccc(Cl)cc2)c1-n1cccc1)N1CCCC1`, the IC50 was > 50 µM (inactive).

On to `CC(C)c1ccc(NC(=O)COC(=O)c2ccc3[nH]c4c(c3c2)CCCC4)cc1`, for which the 50% inhibitory concentration (IC50) was 42.7 µM.

On to `COc1c2nc3ccccc3oc-2cc(=O)c1OC`, for which the IC50 is 23.7 µM.

As for `Cn1nccc1C(=O)N1CCCCC1c1ncc(Cc2ccc(Cl)cc2)o1` (stereo not drawn), the IC50 was > 50 µM (inactive).

Turning to `Cc1ccc(Cn2cc(-c3noc(-c4ccc[nH]4)n3)nn2)cc1`, the half-inhibitory concentration (IC50) is 21.2 µM.

In the case of `COc1ccc(-c2cc(N3CCC(NC(=O)c4ccccc4)C3)n[nH]2)cc1` (stereo not drawn), the IC50 is 20.8 µM.

Regarding `O=C(CCCCn1c(=O)c2ccccc2n(Cc2ccccc2F)c1=O)NCCc1ccccc1`, the 50% inhibitory concentration (IC50) is 16.8 µM.

On to `COc1ccc(/C=C/C(=O)Nc2c3c(nc4c2CCC4)CCCC3)cc1`, for which the IC50 was 15 µM.

Turning to `O=C(Nc1nc2c(s1)COCC2)c1cc(-c2ccco2)[nH]n1`, the IC50 is > 50 µM (inactive).

For `O=C(O)c1ccc(C2Cc3c([nH]c(=O)[nH]c3=O)O2)cc1` (stereo not drawn), the IC50 is 44.9 µM.

Regarding `COc1ccc(C)cc1NC(=O)CSc1nc(C)nc2c1oc1ccccc12`, the IC50 was 22.3 µM.

On to `O=C(NCCn1ccc2ccccc21)c1cc2ccccc2oc1=O`, for which the half-inhibitory concentration (IC50) is 29.8 µM.

On to `O=C(NCC1CC1)C1CCCN(c2ccc(-c3ccccc3)nn2)C1` (stereo not drawn), for which the IC50 was > 50 µM (inactive).

Regarding `N#Cc1ccccc1Cn1c(=O)n(CCCCC(=O)NCc2ccco2)c(=O)c2ccccc21`, the half-inhibitory concentration (IC50) was 46.3 µM.

On to `CCN(CCCNC(=O)c1ccc(Cn2c(=O)[nH]c3ccccc3c2=O)cc1)c1ccccc1`, for which the IC50 is 16 µM.

For `Cc1ccc2c(c1)N=C(c1ccc([N+](=O)[O-])cc1)CO2`, the IC50 was > 50 µM (inactive).

With `Cc1ccc2c(C)nc(Nc3ncc4c(n3)CC(c3ccco3)CC4=O)nc2c1` (stereo not drawn), the IC50 is less than 0.05 µM.

For the molecule `Fc1cccc(-n2cc(-c3noc(-c4ccc[nH]4)n3)nn2)c1`, the concentration for half-maximal inhibition (IC50) was 36.4 µM.

In the case of `Cc1cc(=O)n(C)c2c(O)c3c(cc12)c(C)cc(=O)n3C`, the IC50 was 0.155 µM.

On to `c1csc(CCN2CCc3nc4cccnc4cc3C2)c1`, for which the IC50 is > 50 µM (inactive).

With `Cc1ccccc1NC(=O)c1ccn(COc2ccc(Cl)cc2)n1`, the IC50 is > 50 µM (inactive).

As to `COc1ccc(C(=O)CSc2nnc(-c3cccnc3)n2-c2ccccc2)cc1`, the IC50 was > 50 µM (inactive).

In the case of `O=C(Nc1ccncc1)c1ncoc1-c1cccc(Cl)c1`, the IC50 is > 50 µM (inactive).

As for `COc1ccc(NC(=O)CSc2nc(N)c3c4c(sc3n2)COC(C)(C)C4)cc1`, the IC50 is 42.5 µM.

For `Nc1ccc(F)c(NS(=O)(=O)c2ccccc2)c1`, the IC50 is > 50 µM (inactive).

Regarding `CN1c2ccccc2CN(CC(N)=O)CC1Cc1ccccc1` (stereo not drawn), the IC50 was > 50 µM (inactive).

As to `O=C(NCc1ccc(Br)cc1)c1ccc(-c2cccnc2)nc1`, the half-inhibitory concentration (IC50) is 37.5 µM.

With `COc1ccc(CCNC(=O)CCCn2c(=O)c3ccccc3n(CC(=O)OCc3ccccc3)c2=O)cc1OC`, the IC50 is 23.1 µM.

As for `Cc1cccc(NC(=O)CSc2nnc(-c3n[nH]c4c3CCC4)n2N)c1`, the concentration for half-maximal inhibition (IC50) was 35.1 µM.

`O=C(/C=C/c1ccc(F)cc1)Nc1ccc2c(c1)OCCO2`: the IC50 is > 50 µM (inactive).

In the case of `COC(=O)C1C(c2ccc(OC)cc2)C2(C(=O)c3ccccc3C2=O)C2C=Cc3ccccc3N12` (stereo not drawn), the IC50 was > 50 µM (inactive).

As for `CC1CCN(c2nc(F)c3c(c2F)S(=O)(=O)CCN3Cc2cccnc2)CC1`, the IC50 was > 50 µM (inactive).

`COCCCN1CCS(=O)(=O)c2c(Cl)c(F)nc(Oc3ccc(C#N)cc3)c21`: the IC50 is > 50 µM (inactive).

As to `COc1ccc(Cl)c(NC(=O)C2CC(=O)Nc3cc(-c4ccccc4)nn32)c1` (stereo not drawn), the concentration for half-maximal inhibition (IC50) was 23.5 µM.

Consider `Cc1cccc(-n2cnc(C(=O)NCc3ccc(F)cc3)c2)n1`, for which the half-maximal inhibitory concentration (IC50) was 22.8 µM.

`Cc1cccc(-n2ccnc(SCC(=O)Nc3ccc(Cl)cc3F)c2=O)c1`: the IC50 is 2.21 µM.

Consider `O=C(C(c1ccccc1)c1ccccc1)N1CCC(c2nc3c(nnn3Cc3c(F)cccc3Cl)c(=O)[nH]2)CC1`, for which the IC50 is 15.1 µM.

Turning to `c1ccc(Cc2nn3c(-c4cccnc4)nnc3c3ccccc23)cc1`, the half-maximal inhibitory concentration (IC50) is 0.42 µM.

For the molecule `COc1ccccc1CNC(=O)CCCn1c(=O)c2ccccc2n(CC(=O)N2CCN(c3ccccc3)CC2)c1=O`, the IC50 was 29.2 µM.

As for `NC(=O)CCC(=O)N[C@H]1C[C@H]2CN(Cc3ccccc3)c3ccccc3CN2C1`, the IC50 is > 50 µM (inactive).

Turning to `Cc1cc(Cl)ccc1Nc1nc(Nc2cccc(F)c2)nc2nccnc12`, the IC50 was > 50 µM (inactive).

`Cc1sc(NC(=O)CNc2ccccc2)nc1-c1ccc2c(c1)CCN2C(=O)C(C)C`: the IC50 was > 50 µM (inactive).

For the molecule `O=C(Cn1ccc2ccc(N3CCOCC3)nc21)NCc1ccccc1F`, the IC50 is > 50 µM (inactive).

Turning to `CC1(C)Cc2nc3sc4c(=O)n(CC(=O)NCc5ccccc5)cnc4c3cc2CO1`, the IC50 was 44.9 µM.

On to `COc1ccccc1-c1nc(-c2cn(-c3ccc(C)cc3)nn2)no1`, for which the IC50 is 28.9 µM.

`COc1ccc(N(CC(=O)Nc2cccc(F)c2)S(=O)(=O)c2ccc(OC)c(OC)c2)cc1`: the IC50 was 25.3 µM.

On to `O=C1c2c(O)c(Cl)cc3c2[C@@]2(Oc4cc(Cl)c(O)c5c4[C@]3(O2)[C@@H]2O[C@@H]2C5=O)[C@@H]2O[C@H]12`, for which the IC50 is 0.411 µM.

As for `Cc1nn(Cc2ccccc2)c2sc(C(=O)Nc3nc4ccccc4[nH]3)cc12`, the concentration for half-maximal inhibition (IC50) was 23.5 µM.

Turning to `COc1ccc(NC(=O)COc2ccc3ccc(=O)oc3c2)cc1`, the IC50 is 33.5 µM.
